Reference: patent publication US20050159460A1, “Peptide isosteres containing a heterocycle useful in the treatment of alzheimer's disease” (Elan Pharmaceuticals, priority 2001, published 2005)

CC(C)(C)OC(=O)[C@@H](C(N)c1ccccc1)[C@@H](O)C[C@@H](Cc1ccccc1)c1ncc2n1C(O)C(C)(C)C2=O (stereo partly drawn) [Example 31, 3-[(1R,3S,4S)-1-benzyl-4-t-butoxycarbonyl-amino-3-hydroxy-5-phenylpentyl]-6,6-dimethyl-5-hydroxy-pyrrolo-[1,2-c]-imidazol-7-one]
melting point: 88 to 90 °C
